Literature values in patent publication US20140271465A1, “MATRIX METALLOPROTEASE (MMP) TARGETED AGENTS FOR IMAGING AND THERAPY” (Mallinckrodt LLC, priority 2013, published 2014).

Tests used:
rhMMP2 = target: T1, rhMMP2 (Homo sapiens, UniProt P08253); conditions: control compound, vendor description
T1 construct: purchased R&D Systems 902-MP
T1 sequence (P08253 110-660): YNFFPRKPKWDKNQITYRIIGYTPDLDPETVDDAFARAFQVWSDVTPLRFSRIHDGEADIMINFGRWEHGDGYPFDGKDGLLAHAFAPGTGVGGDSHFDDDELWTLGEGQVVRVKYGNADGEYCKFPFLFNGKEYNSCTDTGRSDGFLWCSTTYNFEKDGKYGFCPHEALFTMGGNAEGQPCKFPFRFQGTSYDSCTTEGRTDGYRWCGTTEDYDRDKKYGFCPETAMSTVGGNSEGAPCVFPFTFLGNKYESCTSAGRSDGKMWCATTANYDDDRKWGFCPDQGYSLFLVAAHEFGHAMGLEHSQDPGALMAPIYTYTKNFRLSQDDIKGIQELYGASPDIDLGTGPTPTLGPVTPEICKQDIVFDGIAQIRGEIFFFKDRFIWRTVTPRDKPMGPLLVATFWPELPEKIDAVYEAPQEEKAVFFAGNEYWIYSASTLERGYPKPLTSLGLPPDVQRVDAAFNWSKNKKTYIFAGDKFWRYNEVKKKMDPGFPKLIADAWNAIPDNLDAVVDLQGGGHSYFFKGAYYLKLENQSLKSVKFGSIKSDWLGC

rhMMP14 = target: T2, rhMMP14 (Homo sapiens, UniProt P50281); conditions: control compound, vendor description
T2 construct: purchased R&D Systems 918-MP

Inhibition of MMP-2 (control description) (rhMMP2)	Inhibition of MMP-14 (control description) (rhMMP14)	SMILES
selective MMP-2 inhibitor	poor inhibitor for MMP-14	CC(C)ON(CC(=O)NO)S(=O)(=O)c1ccc(-c2ccccc2)cc1 [ARP100]
low nM levels	low nM levels	CNC(=O)[C@H](Cc1ccccc1)NC(=O)[C@H](CC(C)C)[C@H](CSc1cccs1)C(=O)NO [Batimastat]
